One data set concerns KKAy mice. The data set is described as follows: Oral glucose tolerance test in type II diabetes KKAy mice. The class given is in vivo. The conditions noted are these: 30 min after glucose. The procedure:
Species, Strains: KKAy mice Preparation Method: […] The volume is 10 mL/kg. The Effects of the Compounds on Blood Glucose in KKay Mice Normal KKAy mice had been fasted for 6 hours, and then were randomly grouped according to the weights and fasting blood glucose, 5 mice in each group. The groups included a blank control group as well as different doses of the treatment groups as follows: Test 1: male 0704 Blank control: double-distilled water by gavage […] Test 2: female 0816 Blank control: double-distilled water by gavage […] Test 3: male 0712 Black control: double-distilled water by gavage […] Test 4: female 0907 Black control: double-distilled water by gavage […] 3. Mean±SD and Student-t test, or Anova was used in statistical analysis. 4.

For the next data set, the system named is normal ICR mice. The data set is described as follows: Oral glucose tolerance test in normal ICR mice (hypoglycemic effect). The data set is classed as in vivo. The conditions noted are these: 2.5 g/kg glucose, 30 min after glucose. Here is the method: Species, strains: ICR mice […] The volume is 20 mL/kg. […] The volume is 20 mL/kg. 1. The effects of compounds on blood glucose levels in normal ICR mice Normal male ICR mice were randomly grouped according to weights, 6 mice in each group. The groups included a black control group as well as different doses of the treatment groups as follows: Test 1: Blank control: double-distilled water by gavage. Group 1: the compound of Example 1, 1 mg/kg by gavage; […] Test 2: Blank control: double-distilled water by gavage. Group 1: the compound of Example 1, 1 mg/kg by gavage; […] 2. Serum Glucose Determination: […] The blank tube was used to set the instrument to zero, the colorimetric assay was performed at OD 505 nm. Serum glucose concentration (BG, mmol/l)=ODsample tube/ODstandard tube×5.55 Data Processing and Statistical Analysis: 1. Mean±SD and Student-t test were used in statistical analysis. 2.

Data set [1] is described as follows: Observation of water solubility when preparing dosing liquid. The conditions noted are these: double distilled water; visible particles at 0.5 mg/mL, dissolved at low concentration. The class given is physicochemical. The procedure: Preparation Method: Compounds were weighed accurately, and then dissolved in double distilled water. The suspensions of 0.5, 0.15 and 0.05 mg/mL were prepared, respectively.

Another data set has as its target T1, DPP-IX (Homo sapiens, UniProt Q86TI2).
T1 construct: purchased Bioscience 80090
The data set is described as follows: Assay for DPP-IX inhibitory activity (luminescence). The class given is biochemical. Conditions: purified DPP-IX enzyme.

A further data set has as its target T2, DPP-VIII (Homo sapiens, UniProt Q6V1X1).
T2 construct: purchased Bioscience 80080
The data set is described as follows: Assay for DPP-VIII inhibitory activity (luminescence). The class given is biochemical. The conditions noted are these: purified DPP-VIII enzyme.

The target in another data set is T3, DPP-IV (Homo sapiens, UniProt P27487).
T3 construct: purchased Calbiochem 317630
T3 sequence (P27487 whole entry): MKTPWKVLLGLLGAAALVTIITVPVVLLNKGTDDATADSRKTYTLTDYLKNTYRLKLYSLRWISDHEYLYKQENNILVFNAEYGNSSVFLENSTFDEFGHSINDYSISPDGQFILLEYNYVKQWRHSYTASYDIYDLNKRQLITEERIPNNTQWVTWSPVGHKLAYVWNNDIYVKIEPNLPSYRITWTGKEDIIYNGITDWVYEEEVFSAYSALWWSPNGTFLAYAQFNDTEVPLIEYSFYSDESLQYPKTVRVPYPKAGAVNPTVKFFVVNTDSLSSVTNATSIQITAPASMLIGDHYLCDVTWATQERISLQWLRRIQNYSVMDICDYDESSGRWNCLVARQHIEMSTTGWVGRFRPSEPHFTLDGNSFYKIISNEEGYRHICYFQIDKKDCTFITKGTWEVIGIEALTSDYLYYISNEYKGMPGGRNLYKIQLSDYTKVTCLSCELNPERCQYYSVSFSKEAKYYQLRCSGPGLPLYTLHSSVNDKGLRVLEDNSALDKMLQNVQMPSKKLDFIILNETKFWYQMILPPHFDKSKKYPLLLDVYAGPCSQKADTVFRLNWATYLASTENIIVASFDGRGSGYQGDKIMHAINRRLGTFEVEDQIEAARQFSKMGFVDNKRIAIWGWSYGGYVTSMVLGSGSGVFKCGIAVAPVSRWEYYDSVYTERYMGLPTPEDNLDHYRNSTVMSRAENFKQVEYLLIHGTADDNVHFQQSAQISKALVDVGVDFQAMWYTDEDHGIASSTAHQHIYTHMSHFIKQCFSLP
Put plainly: Assay for DPP-IV inhibitory activity (DPP-IV-Glo luminescence). The class given is biochemical. Conditions: purified DPP-IV enzyme. The text has this: 2. […] 3. […] 4. […] 5. […] 7. […] 9. […] 10. […] 11. […] 12.

[2] abbreviates: female KKAy mice, 10 mg/kg by gavage, 2.5 g/kg glucose.
Setting [3] is: male KKAy mice, 10 mg/kg by gavage, 1.5 g/kg glucose.
The mark [4] stands for this setting: male KKAy mice, 30 mg/kg by gavage, 1.5 g/kg glucose.
[5] abbreviates: Test 1, male ICR mice, high dose 10 mg/kg by gavage.
Setting [6] is: Test 1, male ICR mice, low dose 1 mg/kg by gavage.
Setting [7] is: Test 1, male ICR mice, middle dose 3 mg/kg by gavage.
Setting [8] is: Test 2, male ICR mice, high dose 10 mg/kg by gavage.
[9] abbreviates: Test 2, male ICR mice, low dose 1 mg/kg by gavage.
Setting [10] is: Test 2, male ICR mice, middle dose 3 mg/kg by gavage.

The values below come from patent US8415349B2, “Dicycloazaalkane derivatives, preparation processes and medical uses thereof” (Jiangsu Hansoh Pharmaceuticals Co., Ltd., priority 2008, dated 2013).

Where a name gives a salt, the structure may show the parent alone.

T1 sequence (Q86TI2 whole entry): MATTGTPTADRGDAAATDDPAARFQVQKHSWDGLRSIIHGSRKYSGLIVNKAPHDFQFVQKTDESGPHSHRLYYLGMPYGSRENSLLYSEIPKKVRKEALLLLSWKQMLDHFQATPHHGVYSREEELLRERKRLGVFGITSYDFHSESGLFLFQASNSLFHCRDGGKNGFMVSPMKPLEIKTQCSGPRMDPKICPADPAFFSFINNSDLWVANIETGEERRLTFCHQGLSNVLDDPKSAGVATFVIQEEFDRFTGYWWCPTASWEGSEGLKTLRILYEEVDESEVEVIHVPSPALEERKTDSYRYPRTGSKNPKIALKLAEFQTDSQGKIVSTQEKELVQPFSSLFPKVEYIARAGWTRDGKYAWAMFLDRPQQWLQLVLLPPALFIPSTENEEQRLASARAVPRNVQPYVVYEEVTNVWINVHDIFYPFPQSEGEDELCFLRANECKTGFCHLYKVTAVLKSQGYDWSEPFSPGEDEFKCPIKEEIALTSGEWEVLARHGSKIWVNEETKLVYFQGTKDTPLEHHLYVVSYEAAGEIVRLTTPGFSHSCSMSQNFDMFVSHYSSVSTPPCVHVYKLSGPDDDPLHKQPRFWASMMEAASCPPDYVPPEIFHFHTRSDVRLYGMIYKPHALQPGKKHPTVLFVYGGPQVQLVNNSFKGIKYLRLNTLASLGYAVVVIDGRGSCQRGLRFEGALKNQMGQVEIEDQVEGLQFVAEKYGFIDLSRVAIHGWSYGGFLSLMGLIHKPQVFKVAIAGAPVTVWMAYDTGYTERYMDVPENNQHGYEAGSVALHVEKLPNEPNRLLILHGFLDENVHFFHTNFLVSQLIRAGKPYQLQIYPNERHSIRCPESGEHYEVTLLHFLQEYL
T2 sequence (Q6V1X1 whole entry): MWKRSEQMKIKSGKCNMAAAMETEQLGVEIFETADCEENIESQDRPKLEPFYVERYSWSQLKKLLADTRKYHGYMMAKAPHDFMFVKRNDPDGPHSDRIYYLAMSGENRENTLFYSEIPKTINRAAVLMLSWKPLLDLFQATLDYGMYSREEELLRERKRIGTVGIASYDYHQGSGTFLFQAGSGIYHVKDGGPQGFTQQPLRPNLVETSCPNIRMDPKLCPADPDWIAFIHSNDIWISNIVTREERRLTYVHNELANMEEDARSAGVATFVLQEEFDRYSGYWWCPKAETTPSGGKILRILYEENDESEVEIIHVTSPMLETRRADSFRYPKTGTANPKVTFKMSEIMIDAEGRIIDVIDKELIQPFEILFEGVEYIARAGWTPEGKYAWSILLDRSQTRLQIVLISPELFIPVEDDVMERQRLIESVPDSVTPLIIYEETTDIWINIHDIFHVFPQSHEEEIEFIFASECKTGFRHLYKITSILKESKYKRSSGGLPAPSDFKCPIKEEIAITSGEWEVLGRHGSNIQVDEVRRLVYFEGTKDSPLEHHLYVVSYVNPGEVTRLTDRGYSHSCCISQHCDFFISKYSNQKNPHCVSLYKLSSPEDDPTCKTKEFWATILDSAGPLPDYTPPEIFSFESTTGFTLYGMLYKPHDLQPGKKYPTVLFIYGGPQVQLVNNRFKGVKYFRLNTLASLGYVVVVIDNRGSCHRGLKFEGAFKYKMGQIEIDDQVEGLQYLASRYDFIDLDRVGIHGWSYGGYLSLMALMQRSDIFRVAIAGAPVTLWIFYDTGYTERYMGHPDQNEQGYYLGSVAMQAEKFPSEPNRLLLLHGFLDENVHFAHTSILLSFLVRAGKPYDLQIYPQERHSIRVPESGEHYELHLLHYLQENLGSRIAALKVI

In the case of `COC(=O)N1C[C@H]2C[C@@H](NCC(=O)N3CCC[C@H]3C#N)C[C@H]2C1` [Example 2, hydrochloride], the “percentage of blood glucose decreased vs control group at 30 minutes” value (from here on “percentage of blood glucose decreased”) in the data set with KKAy mice (setting [2]) is on record as 21.55%; with KKAy mice (setting [3]), 13.79%; with KKAy mice (setting [4]), 12.23%; with normal ICR mice (setting [5]), 26.93%; with normal ICR mice (setting [6]), 25.54%; with normal ICR mice (setting [7]), 25.92%. For the same molecule, the “percentage of blood glucose decreased” value turned out to be 27.75% in the data set on normal ICR mice (setting [8]), 24.51% with normal ICR mice (setting [9]) and 26.96% in the data set with normal ICR mice (setting [10]).
On to `CN(C)C(=O)N1C[C@H]2C[C@@H](NCC(=O)N3CCC[C@H]3C#N)C[C@H]2C1` [Example 1, cis-5-[2-((S)-2-Cyano-pyrrolidin-1-yl)-2-oxo-ethylamino]-N,N-dimethyl-hexahydro-cyclopenta[c]pyrrole-2-carboxamide hydrochloride], for which the “percentage of blood glucose decreased” value with KKAy mice (female KKAy mice, 3 mg/kg by gavage, 2.5 g/kg glucose) stood at 40.63%; in the data set on KKAy mice (setting [2]), 24.68%; with KKAy mice (setting [3]), 16.22%; with KKAy mice (setting [4]), 17.15%; in the data set on normal ICR mice (setting [5]) it was 31.85%; in the data set on normal ICR mice (setting [6]), 19.16%. For the same molecule, the “percentage of blood glucose decreased” value in the data set with normal ICR mice (setting [7]) was found to be 22.85%; in the data set with normal ICR mice (setting [8]), 32.05%; in the data set with normal ICR mice (setting [9]), 26.10%; in the data set on normal ICR mice (setting [10]), 30.24%. In addition, the “water solubility (observation)” value in data set [1] is recorded as “poorly water-soluble”.
In general, IC50 refers to the concentration that gives 50% inhibition. High values mean weaker potency, low ones greater potency. For the molecule `CN(C)C(=O)N1C[C@@H]2C[C@@](C)(NCC(=O)N3C[C@@H](F)C[C@H]3C#N)C[C@@H]2C1` [Example 18, 5-[2-((2S,4S)-2-Cyano-4-fluoro-pyrrolidin-1-yl)-2-oxo-ethylamino]-5-methyl-hexahydro-cyclopenta[c]pyrrole-2-carboxylic acid dimethylamide p-toluenesulfonate], the figures for the IC50 against DPP-IX, against DPP-VIII and at DPP-IV were 380 nM, 3320 nM and 39 nM, respectively.
In the same order, the values of `CN(C)C(=O)N1C[C@@H]2C[C@](C)(NCC(=O)N3C[C@@H](F)C[C@H]3C#N)C[C@@H]2C1` [Example 13, 5-[2-((2S,4S)-2-Cyano-4-fluoro-pyrrolidin-1-yl)-2-oxo-ethylamino]-N,N,5-tirmethyl-hexahydro-cyclopenta[c]pyrrole-2-carboxamide tartrate] are 516 nM, 371 nM and 10 nM.
